Consider 11 compounds from patent publication US6451834B1, “Indeno[1,2-c]-, naphtho[1,2-c]- and benzo[6,7]cyclohepta[1,2-c]pyrazole derivatives” (BASF Aktiengesellschaft, priority 1997, dated 2002).

Where only a bound is given, the exact number is not on record here.

The test system of data set [1] is Human umbilical vein endothelial cells (HUVEC). Briefly: HUVEC mitogenesis assay. In kind it is cell-based. The following applies: 50 ng/ml VEGF, tritiated thymidine, read-out: VEGF-Stimulated Mitogenesis IC50. The procedure:
Human umbilical vein endothelial cells (HUVEC) were cultured in EGM-Complete Media (endothelial growth media supplemented with 10% FBS, hydrocortisone, epidermal growth factor and bovine brain extract as per the supplier's directions). Cells, media and supplements were purchased from Clonetics (San Diego, Calif.). The HUVEC Mitogenesis Assay was used to measure inhibition of mitogenesis induced by VEGF, FGF or Complete Media. Cells were harvested by trypsinization, washed once and suspended in Complete Media (CM) at a concentration of 5,000 cells/0.15 ml. Cells were seeded into 96-well plates at 5,000 cells/well and incubated at 37 C for 24 hours. Cells were washed once with serum-free media (SFM) and incubated under serum-free conditions for 24 hours. Non-serum starved control wells were cultured with CM during this period. Test compounds were prepared as 10 mM stock solutions in DMSO, diluted in SFM and added to wells over a concentration range (0.005-50 μM final concentration). Cells were incubated for 1 hour prior to addition of 50 ng/ml VEGF or FGF (R & D Systems, Minneapolis, Minn.). Complete media stimulated wells received the test compound and stimulus simultaneously. […] Plates were harvested onto filter mats with a Tomtec Harvester and counted with a Betaplate liquid scintillation counter (Wallac).

Data set [2] addresses T1, KDR tyrosine kinase (Homo sapiens, UniProt P35968).
T1 construct: KDR intra-cellular domain (aa789-1354); poly-His6 (N); made in house; host or cells: SF-9 insect cells, recombinant baculovirus (pVL1393)
Description: KDR in vitro ELISA. The conditions noted are these: ATP 5 μM. In kind it is biochemical.
Description: The following procedure was used to assay the inhibitory effect of compounds of this invention on KDR tyrosine kinase activity:
Dilute PGT stock (50 mg/ml, frozen) in PBS to a 250 μg/ml. […] Add 125 μl PBS to blank wells. Cover with sealing tape and incubate overnight 37° C. Wash 1× with 250 μl washing buffer and dry for about 2 hrs in 37° C. dry incubator.
Prepare inhibitor solutions at a 4× concentration in 20% DMSO in water.
Prepare enzyme solution so that desired units are in 50 μl, e.g. for KDR make to 1 ng/μl for a total of 50 ng per well in the reactions. Store on ice.
Make 4× ATP solution to 20 μM from 100 mM stock in water. Store on ice.
Add 50 μl of the enzyme solution per well.
Add 25 μl 4× ATP for inhibitor assay.
Incubate for 10 minutes at room temperature.
Stop reaction by adding 50 μl 0.05N HCl per well.
Dilute 1 mg/ml aliquot of PY20-HRP (Pierce) antibody to 50 ng/ml in 0.1% BSA in PBS by a 2 step dilution (100×, then 200×).
Add 100 μl Ab per well. Incubate 1 hr at room temp. Incubate 1 hr at 4C.
Prepare TMB substrate and add 100 μl per well.
Monitor OD at 650 nm until 0.6 is reached.
Stop with 1M Phosphoric acid. Shake on plate reader.

T1 sequence (P35968 789-1354): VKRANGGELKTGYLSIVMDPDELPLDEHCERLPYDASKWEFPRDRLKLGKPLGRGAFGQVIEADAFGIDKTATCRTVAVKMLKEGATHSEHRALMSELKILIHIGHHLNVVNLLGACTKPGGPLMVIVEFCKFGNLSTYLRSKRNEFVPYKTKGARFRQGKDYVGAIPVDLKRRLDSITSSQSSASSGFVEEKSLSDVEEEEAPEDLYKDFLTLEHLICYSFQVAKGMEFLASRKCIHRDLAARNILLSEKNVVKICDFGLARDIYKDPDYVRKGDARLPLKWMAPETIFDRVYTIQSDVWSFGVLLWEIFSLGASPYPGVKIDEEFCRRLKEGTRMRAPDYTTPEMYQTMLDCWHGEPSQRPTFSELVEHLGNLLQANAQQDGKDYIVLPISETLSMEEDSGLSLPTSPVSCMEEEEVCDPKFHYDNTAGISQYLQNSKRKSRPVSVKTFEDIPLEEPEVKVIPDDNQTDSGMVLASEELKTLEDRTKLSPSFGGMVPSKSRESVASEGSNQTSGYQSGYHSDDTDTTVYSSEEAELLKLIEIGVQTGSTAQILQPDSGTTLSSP

Regarding `c1cncc(-c2n[nH]c3c2Cc2ccccc2-3)c1` [Example 1, 3-(3-Pyridyl)-1,4-dihydroindeno[1,2-c]pyrazole], the melting point was in the range of 223 to 224 °C.

In turn, `COc1ccc(-c2n[nH]c3c2Cc2ccccc2-3)cc1` [Example 6, 3-(4-methoxyphenyl)-1,4-dihydroindeno[1,2-c]pyrazole] had a melting point of 247 °C.

In turn, `COc1cccc(-c2n[nH]c3c2Cc2ccccc2-3)c1` [Example 5, 3-(3-methoxyphenyl)-1,4-dihydroindeno[1,2-c]pyrazole] registered a melting point of 172 to 174 °C. Take `c1csc(-c2n[nH]c3c2Cc2ccccc2-3)c1`: the IC50 in data set [1] came out at 2 µM. As to `C1=NC(n2nc(-c3ccccc3)cc2-c2ccccc2)NC1` (centres unmarked), the IC50 in data set [2] was greater than 100 µM.

Consider `c1coc(-c2n[nH]c3c2Cc2ccccc2-3)c1` [Example 9, 3-(2-furyl)-1,4-dihydroindeno[1,2-c]pyrazole], for which the melting point lay within 195 to 197 °C. Take `Cc1ccc(-c2n[nH]c3c2Cc2ccccc2-3)cc1` [Example 7, 3-(p-tolyl)-1,4-dihydroindeno[1,2-c]pyrazole]: the melting point lay within 267 to 269 °C. `Cc1c2c(nn1-c1ccccc1)-c1ccccc1C2=O` gave an IC50 in data set [2] greater than 100 µM. In turn, `c1ccc2c(c1)Cc1c(-c3ccsc3)n[nH]c1-2` [Example 29, 3-(3-thienyl)-1,4-dihydroindeno[1,2-c]pyrazole] had a melting point of 219 to 220 °C. `COc1ccc2c(c1)Cc1c(-c3cccs3)n[nH]c1-2` [Example 8, 6-methoxy-3-(2-thienyl)-1,4-dihydroindeno[1,2-c]pyrazole] displayed a melting point of 212 to 214 °C. In the case of `c1csc(-c2n[nH]c3c2CCc2ccccc2-3)c1` [Example 3, 3-(2-Thienyl)-4,5-dihydro-1H-benz[g]indazole], the melting point was in the range of 206 to 208 °C.
